Here are results for four compounds from patent US20250197425A1, “2,6,9-TRISUBSTITUTED PURINES” (ASTRAZENECA AB, priority 2022, published 2025).

Each structure is given as a SMILES string. pIC50: −log10 of the molar value. A value given as a limit tells only on which side of the number the result lay.

For test [1], the target named is CDK4:CCND1 (Homo sapiens (Human), UniProt P11802). The test is described as follows: NanoBRET assay in MCF-7 cells, CDK4. It is filed as cell-based. The note with it: NanoBRET, transfected MCF-7 cells, 2 hours; n = 1 or average; read-out: CDK4 IC50. In outline:
(§1)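 Transiently transfected MCF-7 cells expressing CDK1:CCNB1 or CDK4:CCND1 were treated with compound plus tracer (CDK1: Tracer K-9, 400 μM stock; CDK4: Tracer K-7, 100 μM stock) for 2 h at 37 °C.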

Test [2] addresses CDK2:CCNE1 (Homo sapiens (Human), UniProt P24941). The test is described as follows: NanoBRET assay in MCF-7 cells, CDK2. It is filed as cell-based. The following applies: transfected MCF-7 cells, 2 hours, n = 1 or average. Put shortly:
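In live MCF-7 cells, compound added followed by NanoBRET TE Tracer K-9 (stock 200 μM) for CDK2, 2 h at 37° C, 5% CO2.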

Test [3] concerns MCF-7 cells. The test is described as follows: Cellular proliferation EdU assay, MCF-7. The test is classed as cell-based. The following applies: Homo sapiens, MCF7, 48 h, EdU assay, two days; read-out: MCF-7 IC50. Put shortly: (§2)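 MCF-7 (800 cells/well) and OVCAR3 (1200 cells/well) in RPMI with 10% FBS exposed to compounds for two days at 37 °C.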
The subject of test [4] is NPM phosphorylation (Thr199, CDK2-cyclin E complex). The test is described as follows: NPM phosphorylation imaging assay in MCF-7 cells. The test is classed as cell-based. The following applies: Homo sapiens, MCF7, 2 h, 4N DNA cells. Put shortly: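 MCF-7 cells were fixed, permeabilised and immunostained, then imaged for phospho-NPM (Thr199), a CDK2-cyclin E site. Analysis was gated on 4N-DNA cells by Hoechst staining. Signals were normalised to controls and fitted for IC50.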

The test system of test [5] is OVCAR3 cells. The test is described as follows: Cellular proliferation EdU assay, OVCAR3. It is filed as cell-based, human. The note with it: Homo sapiens, OVCAR-3, 48 h, EdU assay, two days; read-out: OVCAR3 IC50. In outline: as §2
In test [6] the target is CDK1:CCNB1 (Homo sapiens (Human), UniProt P06493). The test is described as follows: NanoBRET assay in MCF-7 cells, CDK1. The note with it: NanoBRET, transfected MCF-7 cells, 2 hours; n = 1 or average; read-out: CDK1 IC50. It is filed as cell-based. In outline:
as §1

Test [7] has as its system SKOV3 cells. The test is described as follows: Cell proliferation CyQUANT assay, SKOV3. The test is classed as cell-based. The following applies: Homo sapiens, SK-OV-3, 168 h; CyQUANT cell counts, 7 days. As for the experimental part:
(§3) An imaging-based assay was used to investigate changes in cell number in OVCAR3 cells (CCNE1-amplified ovarian cancer cell line) and SKOV3 cells (non-amplified ovarian cancer cell line) treated with test compounds.
(§4) Cells were plated in 384 well plates (Perkin-Elmer 6057300) in RPMI-1640/10% FBS/1× L-Glu at 500 cells per well in 30 μL and incubated with test compound at 37° C. and 5% CO2 for 7 days. Cells were then stained using the CyQuant Direct Cell Proliferation Assay Kit (Thermo Cat #C7026) in accordance with the kit protocol. The stained cells were imaged using an Operetta high content imager to generate cell counts and IC50 values were calculated relative to DMSO controls.

The subject of test [8] is OVCAR3 cells. The test is described as follows: Cell proliferation CyQUANT assay, OVCAR3. It is filed as cell-based. The following applies: Homo sapiens, OVCAR-3, 168 h; CyQUANT cell counts, 7 days. The protocol:
as §3, §4

CDK4:CCND1, sequence (P11802 whole entry): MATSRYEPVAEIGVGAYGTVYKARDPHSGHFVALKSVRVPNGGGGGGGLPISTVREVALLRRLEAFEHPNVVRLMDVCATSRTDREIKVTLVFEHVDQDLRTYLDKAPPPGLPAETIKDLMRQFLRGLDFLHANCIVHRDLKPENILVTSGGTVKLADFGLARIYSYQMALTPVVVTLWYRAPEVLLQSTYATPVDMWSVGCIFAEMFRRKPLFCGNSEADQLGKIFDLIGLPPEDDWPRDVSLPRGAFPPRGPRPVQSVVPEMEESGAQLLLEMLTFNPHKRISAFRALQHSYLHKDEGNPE
CDK4:CCND1, sequence (P24385 whole entry partner): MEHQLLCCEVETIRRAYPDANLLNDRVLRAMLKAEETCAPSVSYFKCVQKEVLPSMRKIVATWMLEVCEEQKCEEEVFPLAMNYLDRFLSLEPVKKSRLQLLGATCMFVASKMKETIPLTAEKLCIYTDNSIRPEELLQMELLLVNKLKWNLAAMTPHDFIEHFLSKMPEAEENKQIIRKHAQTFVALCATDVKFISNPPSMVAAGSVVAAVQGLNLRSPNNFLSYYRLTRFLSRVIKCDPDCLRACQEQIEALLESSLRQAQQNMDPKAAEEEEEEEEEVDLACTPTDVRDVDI
CDK1:CCNB1, sequence (P06493 whole entry): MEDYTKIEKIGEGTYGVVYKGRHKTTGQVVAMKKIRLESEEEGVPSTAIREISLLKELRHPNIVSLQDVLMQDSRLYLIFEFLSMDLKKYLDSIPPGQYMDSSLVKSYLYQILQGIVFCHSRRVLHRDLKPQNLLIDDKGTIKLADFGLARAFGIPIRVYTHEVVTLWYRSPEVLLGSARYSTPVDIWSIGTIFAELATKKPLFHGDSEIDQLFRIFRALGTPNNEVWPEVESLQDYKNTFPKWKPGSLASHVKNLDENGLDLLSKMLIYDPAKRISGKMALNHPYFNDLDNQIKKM
CDK1:CCNB1, sequence (P14635 whole entry partner): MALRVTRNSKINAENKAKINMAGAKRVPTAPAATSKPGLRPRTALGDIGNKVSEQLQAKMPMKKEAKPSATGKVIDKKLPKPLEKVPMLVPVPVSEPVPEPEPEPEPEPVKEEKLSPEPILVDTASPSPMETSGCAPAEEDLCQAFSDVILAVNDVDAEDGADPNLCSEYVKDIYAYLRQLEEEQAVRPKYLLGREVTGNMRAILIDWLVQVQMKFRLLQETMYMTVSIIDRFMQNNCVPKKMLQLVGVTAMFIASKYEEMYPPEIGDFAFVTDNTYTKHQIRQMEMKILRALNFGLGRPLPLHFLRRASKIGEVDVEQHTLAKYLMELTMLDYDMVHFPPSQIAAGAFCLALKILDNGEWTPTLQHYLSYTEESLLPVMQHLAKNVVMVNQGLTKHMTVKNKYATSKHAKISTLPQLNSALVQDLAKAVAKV

`CCn1cnc2c(N[C@H]3CCN(S(=O)(=O)NC)C3)nc(-c3cccc4c3CC[C@]4(C)O)nc21` (relative stereo) [Example 3, (S)-3-((9-ethyl-2-((R*)-1-hydroxy-1-methyl-2,3-dihydro-1H-inden-4-yl)-9H-purin-6-yl)amino)-N-methylpyrrolidine-1-sulfonamide]: the pIC50 in test [1] is 4.89; in test [2], 7.74; in test [3] it was 6.01; in test [4], 6.63; in test [5], 6.34; in test [6], 6.20.

In the case of `CCn1cnc2c(N[C@@H]3CN(S(=O)(=O)c4ncc[nH]4)C[C@H]3F)nc(N[C@@H](CO)C3CC3)nc21` (relative stereo) [Example 17, (R)-2-((6-(((3R*,4R*)-1-((1H-imidazol-2-yl)sulfonyl)-4-fluoropyrrolidin-3-yl)amino)-9-ethyl-9H-purin-2-yl)amino)-2-cyclopropylethan-1-ol], the negative logarithm of the IC50 (pIC50) in test [1] is 5.92; in test [2], 8.05; in test [7], 5.93; in test [4], 7.96; in test [5] it was 7.36; in test [6], 6.94. This compound showed a negative logarithm of the IC50 (pIC50) in test [8] of 7.28.

For `CCNS(=O)(=O)N1CC[C@H](Nc2nc(N[C@@H](CO)C3CC3)nc3c2ncn3C)C1` [Example 19, (S)-3-((2-(((R)-1-cyclopropyl-2-hydroxyethyl)amino)-9-methyl-9H-purin-6-yl)amino)-N-ethylpyrrolidine-1-sulfonamide], the pIC50 in test [1] was 5.24; in test [2], 7.57; in test [3] it was 6.27; in test [7], 5.39; in test [4], 6.88; in test [5], 6.56. Further, the pIC50 is 6.47 in test [6] and 6.70 in test [8].

`CCNS(=O)(=O)N1CC[C@H](Nc2nc(N[C@@H](CC)[C@@H](C)O)nc3c2ncn3C)C1` [Example 53, (S)—N-ethyl-3-((2-(((2R,3S)-2-hydroxypentan-3-yl)amino)-9-methyl-9H-purin-6-yl)amino)pyrrolidine-1-sulfonamide]: the pIC50 in test [1] was < 4.53; in test [2], 7.37; in test [3], 5.85; in test [7] it was 4.97; in test [4] it was 6.62; in test [5], 6.21. The pIC50 in test [6] is 5.75; in test [8], 6.43.
